Laboratory results as given in patent US6620828B2, “Thiazole compounds and pharmaceutical compositions for inhibiting protein kinases and methods for their use” (Agouron Pharmaceuticals, Inc., priority 1999, dated 2003).

Each compound was assayed on human umbilical vein endothelial cells (HUVEC) (assay: HUVEC proliferation assay). Settings: Homo sapiens, HUVEC, Inhibition of HUVEC Proliferation; 50 nM; crude combinatorial urea library; read-out: Inhibition @ 50 nM.
Type: cell-based
In short: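 Readout was MTT dye reduction (A595) after 72 h of stimulation with VEGF at 6 ng/ml final. Compound, in 0.1% DMSO final, was added 1 h before VEGF to HUVEC starved 24 h in 1% FBS. % inhibition was scaled between VEGF-alone and unstimulated wells; IC50 was fitted from triplicate dose curves.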

Compared with COc1cccc(C(=O)Nc2cc(-c3noc(-c4sc(NC(=O)NCC(C)O)nc4N)n3)c(F)cc2F)c1 (stereo not shown), COc1cccc(C(=O)Nc2cc(-c3noc(-c4sc(NC(=O)NC(C)CO)nc4N)n3)c(F)cc2F)c1 (stereo not shown) is lower in inhibition at 0.05 µM: 78% for the first, 77% for the second.

First: COc1cccc(C(=O)Nc2cc(-c3noc(-c4sc(NC(=O)NCC5CCC=CO5)nc4N)n3)c(F)cc2F)c1 (stereo not shown)
Second: COc1cccc(C(=O)Nc2cc(-c3noc(-c4sc(NC(=O)NCC(C)(C)N)nc4N)n3)c(F)cc2F)c1
The inhibition at 0.05 µM of the first is higher: 93% for the first, 14% for the second.

Going from COc1cccc(C(=O)Nc2cc(-c3noc(-c4sc(NC(=O)N[C@H](CO)Cc5c[nH]cn5)nc4N)n3)c(F)cc2F)c1 to CCC(CO)NC(=O)Nc1nc(N)c(-c2nc(-c3cc(NC(=O)c4cccc(OC)c4)c(F)cc3F)no2)s1 (stereo not shown), the inhibition at 0.05 µM rises from 77% to 81%.

Compared with COc1cccc(C(=O)Nc2cc(-c3noc(-c4sc(NC(=O)NCCCC(=O)O)nc4N)n3)c(F)cc2F)c1, COc1cccc(C(=O)Nc2cc(-c3noc(-c4sc(NC(=O)NCCN(C)C)nc4N)n3)c(F)cc2F)c1 is lower in inhibition at 0.05 µM: 96% for the first, 69% for the second.

First: COc1cccc(C(=O)Nc2cc(-c3noc(-c4sc(NC(=O)NCCN5CCNCC5)nc4N)n3)c(F)cc2F)c1
Second: COc1cccc(C(=O)Nc2cc(-c3noc(-c4sc(NC(=O)NCCN5CCCC5)nc4N)n3)c(F)cc2F)c1
The inhibition at 0.05 µM of the first is lower: 76% for the first, 79% for the second.

Going from COc1cccc(C(=O)Nc2cc(-c3noc(-c4sc(NC(=O)NCCc5ccccn5)nc4N)n3)c(F)cc2F)c1 to COc1cccc(C(=O)Nc2cc(-c3noc(-c4sc(NC(=O)NCC(C)(O)CO)nc4N)n3)c(F)cc2F)c1 (stereo not shown), the inhibition at 0.05 µM falls from 78% to 45%.

COCC(C)NC(=O)Nc1nc(N)c(-c2nc(-c3cc(NC(=O)c4cccc(OC)c4)c(F)cc3F)no2)s1 (stereo not shown) and CCCCN(CCCC)CCCNC(=O)Nc1nc(N)c(-c2nc(-c3cc(NC(=O)c4cccc(OC)c4)c(F)cc3F)no2)s1 are the same in inhibition at 0.05 µM: 80% for the first, 80% for the second.

Same assay, conditions: Homo sapiens, HUVEC, Table I screening results; 150 nM; crude combinatorial amide library

First: COc1cc(Nc2nc(N)c(-c3nc(-c4cccc(NC(=O)c5ccccc5CCc5ccccc5)c4)cs3)s2)cc(OC)c1OC
Second: COc1cc(Nc2nc(N)c(-c3nc(-c4cccc(NC(=O)c5cn(Cc6ccccc6)c6ccccc56)c4)cs3)s2)cc(OC)c1OC
The inhibition at 0.15 µM of the first is lower: -14% for the first, -11% for the second.

Going from COc1cc(Nc2nc(N)c(-c3nc(-c4cccc(NC(=O)c5cccc(C(=O)c6ccccc6)c5)c4)cs3)s2)cc(OC)c1OC to COc1cc(Nc2nc(N)c(-c3nc(-c4cccc(NC(=O)c5ccc(-c6ccccc6)cc5)c4)cs3)s2)cc(OC)c1OC, the inhibition at 0.15 µM falls from -18% to -32%.

First: COc1cc(Nc2nc(N)c(-c3nc(-c4cccc(NC(=O)C5CCCCC5)c4)cs3)s2)cc(OC)c1OC
Second: COc1cc(Nc2nc(N)c(-c3nc(-c4cccc(NC(=O)C5CCCCCC5)c4)cs3)s2)cc(OC)c1OC
The inhibition at 0.15 µM of the first is lower: -24% for the first, 13% for the second.

Going from COc1cc(Nc2nc(N)c(-c3nc(-c4cccc(NC(=O)CC5CCCCC5)c4)cs3)s2)cc(OC)c1OC to COc1cc(Nc2nc(N)c(-c3nc(-c4cccc(NC(=O)CCC5CCCC5)c4)cs3)s2)cc(OC)c1OC, the inhibition at 0.15 µM rises from 3% to 85%.

Compared with COc1cc(Nc2nc(N)c(-c3nc(-c4cccc(NC(=O)c5cc6cc(Cl)ccc6[nH]5)c4)cs3)s2)cc(OC)c1OC, COc1ccc2[nH]c(C(=O)Nc3cccc(-c4csc(-c5sc(Nc6cc(OC)c(OC)c(OC)c6)nc5N)n4)c3)cc2c1 is higher in inhibition at 0.15 µM: 0% for the first, 1% for the second.

Going from COc1cc(Nc2nc(N)c(-c3nc(-c4cccc(NC(=O)Cc5ccc(Cl)c(Cl)c5)c4)cs3)s2)cc(OC)c1OC to COc1cc(Nc2nc(N)c(-c3nc(-c4cccc(NC(=O)Cc5ccc(Cl)cc5Cl)c4)cs3)s2)cc(OC)c1OC, the inhibition at 0.15 µM falls from -5% to -20%.

Compared with CCc1ccc(-c2ccc(C(=O)Nc3cccc(-c4csc(-c5sc(Nc6cc(OC)c(OC)c(OC)c6)nc5N)n4)c3)cc2)cc1, COc1cc(Nc2nc(N)c(-c3nc(-c4cccc(NC(=O)c5ccc(CCCl)cc5)c4)cs3)s2)cc(OC)c1OC is higher in inhibition at 0.15 µM: -7% for the first, 59% for the second.

Going from COc1cc(Nc2nc(N)c(-c3nc(-c4cccc(NC(=O)c5ccc6[nH]nnc6c5)c4)cs3)s2)cc(OC)c1OC to COc1cc(Nc2nc(N)c(-c3nc(-c4cccc(NC(=O)c5ccc6[nH]cnc6c5)c4)cs3)s2)cc(OC)c1OC, the inhibition at 0.15 µM falls from -8% to -30%.

Compared with COc1cc(Nc2nc(N)c(-c3nc(-c4cccc(NC(=O)c5ccncc5)c4)cs3)s2)cc(OC)c1OC, COc1cc(Nc2nc(N)c(-c3nc(-c4cccc(NC(=O)c5ccc(C#N)cc5)c4)cs3)s2)cc(OC)c1OC is higher in inhibition at 0.15 µM: 1% for the first, 34% for the second.

COc1cc(Nc2nc(N)c(-c3nc(-c4cccc(NC(=O)Cc5ccc(Cl)cc5)c4)cs3)s2)cc(OC)c1OC and COc1cc(Nc2nc(N)c(-c3nc(-c4cccc(NC(=O)Cc5ccc(F)cc5)c4)cs3)s2)cc(OC)c1OC are the same in inhibition at 0.15 µM: -7% for the first, -7% for the second.

Compared with COc1cc(Nc2nc(N)c(-c3nc(-c4cccc(NC(=O)Cc5cccc(Cl)c5)c4)cs3)s2)cc(OC)c1OC, COc1cc(Nc2nc(N)c(-c3nc(-c4cccc(NC(=O)Cc5ccccc5Cl)c4)cs3)s2)cc(OC)c1OC is higher in inhibition at 0.15 µM: 30% for the first, 34% for the second.

Compared with COc1cc(Nc2nc(N)c(-c3nc(-c4cccc(NC(=O)c5cc6cccc(OC)c6o5)c4)cs3)s2)cc(OC)c1OC, COc1ccc2oc(C(=O)Nc3cccc(-c4csc(-c5sc(Nc6cc(OC)c(OC)c(OC)c6)nc5N)n4)c3)cc2c1 is lower in inhibition at 0.15 µM: 21% for the first, 7% for the second.

Going from CC/C=C/CC(=O)Nc1cccc(-c2csc(-c3sc(Nc4cc(OC)c(OC)c(OC)c4)nc3N)n2)c1 to CCC(C)CC(=O)Nc1cccc(-c2csc(-c3sc(Nc4cc(OC)c(OC)c(OC)c4)nc3N)n2)c1 (stereo not shown), the inhibition at 0.15 µM falls from 19% to -3%.

Going from COc1cc(Nc2nc(N)c(-c3nc(-c4cccc(NC(=O)c5ccc6cc[nH]c6c5)c4)cs3)s2)cc(OC)c1OC to COc1cc(Nc2nc(N)c(-c3nc(-c4cccc(NC(=O)c5ccc6ncccc6c5)c4)cs3)s2)cc(OC)c1OC, the inhibition at 0.15 µM rises from 25% to 26%.

Going from COc1cc(Nc2nc(N)c(-c3nc(-c4cccc(NC(=O)CN5C(=O)CSC5=O)c4)cs3)s2)cc(OC)c1OC to COc1cc(Nc2nc(N)c(-c3nc(-c4cccc(NC(=O)CCC(C)C)c4)cs3)s2)cc(OC)c1OC, the inhibition at 0.15 µM rises from 17% to 39%.

Compared with COc1cc(Nc2nc(N)c(-c3nc(-c4cccc(NC(=O)C5C=CCC=C5C)c4)cs3)s2)cc(OC)c1OC (stereo not shown), COc1cc(Nc2nc(N)c(-c3nc(-c4cccc(NC(=O)C(C)(C)C)c4)cs3)s2)cc(OC)c1OC is lower in inhibition at 0.15 µM: 14% for the first, 7% for the second.

Compared with COc1ccc2c(c1)C(CC(=O)Nc1cccc(-c3csc(-c4sc(Nc5cc(OC)c(OC)c(OC)c5)nc4N)n3)c1)CC2=O (stereo not shown), COc1ccccc1CC(=O)Nc1cccc(-c2csc(-c3sc(Nc4cc(OC)c(OC)c(OC)c4)nc3N)n2)c1 is higher in inhibition at 0.15 µM: 0% for the first, 58% for the second.

Compared with COc1cc(Nc2nc(N)c(-c3nc(-c4cccc(NC(=O)c5ccc6ccccc6n5)c4)cs3)s2)cc(OC)c1OC, COc1cc(Nc2nc(N)c(-c3nc(-c4cccc(NC(=O)C5=C(C)c6ccccc6C5)c4)cs3)s2)cc(OC)c1OC is higher in inhibition at 0.15 µM: -11% for the first, 29% for the second.

First: COc1cc(Nc2nc(N)c(-c3nc(-c4cccc(NC(=O)c5ccc6c(c5)OCO6)c4)cs3)s2)cc(OC)c1OC
Second: COc1cc(Nc2nc(N)c(-c3nc(-c4cccc(NC(=O)Cc5ccc6c(c5)OCO6)c4)cs3)s2)cc(OC)c1OC
The inhibition at 0.15 µM of the first is lower: 42% for the first, 46% for the second.

First: C#CCCCC(=O)Nc1cccc(-c2csc(-c3sc(Nc4cc(OC)c(OC)c(OC)c4)nc3N)n2)c1
Second: COc1cc(Nc2nc(N)c(-c3nc(-c4cccc(NC(=O)CCOc5ccccc5)c4)cs3)s2)cc(OC)c1OC
The inhibition at 0.15 µM of the first is lower: -14% for the first, 11% for the second.

First: COc1cc(Nc2nc(N)c(-c3nc(-c4cccc(NC(=O)C(C)c5ccccc5)c4)cs3)s2)cc(OC)c1OC (stereo not shown)
Second: COc1cc(Nc2nc(N)c(-c3nc(-c4cccc(NC(=O)C(=O)Cc5ccccc5)c4)cs3)s2)cc(OC)c1OC
The inhibition at 0.15 µM of the first is lower: 3% for the first, 20% for the second.

First: COc1cc(Nc2nc(N)c(-c3nc(-c4cccc(NC(=O)/C=C/c5cccnc5)c4)cs3)s2)cc(OC)c1OC
Second: COc1cc(Nc2nc(N)c(-c3nc(-c4cccc(NC(=O)/C=C/c5ccc(Cl)cc5)c4)cs3)s2)cc(OC)c1OC
The inhibition at 0.15 µM of the first is lower: -13% for the first, 40% for the second.

Going from COc1cc(Nc2nc(N)c(-c3nc(-c4cccc(NC(=O)c5ccc(N(C)C)cc5)c4)cs3)s2)cc(OC)c1OC to COc1cc(Nc2nc(N)c(-c3nc(-c4cccc(NC(=O)c5ccc(SC)cc5)c4)cs3)s2)cc(OC)c1OC, the inhibition at 0.15 µM rises from 0% to 31%.

First: COc1cc(Nc2nc(N)c(-c3nc(-c4cccc(NC(=O)CCc5nc6ccccc6[nH]5)c4)cs3)s2)cc(OC)c1OC
Second: COc1ccc(CCC(=O)Nc2cccc(-c3csc(-c4sc(Nc5cc(OC)c(OC)c(OC)c5)nc4N)n3)c2)cc1OC
The inhibition at 0.15 µM of the first is higher: 27% for the first, 23% for the second.

First: COc1cc(Nc2nc(N)c(-c3nc(-c4cccc(NC(=O)c5csc(-c6cccnc6)n5)c4)cs3)s2)cc(OC)c1OC
Second: COc1cc(Nc2nc(N)c(-c3nc(-c4cccc(NC(=O)c5cnc(Cl)c(Cl)c5)c4)cs3)s2)cc(OC)c1OC
The inhibition at 0.15 µM of the first is higher: 38% for the first, 20% for the second.

Compared with COc1cc(Nc2nc(N)c(-c3nc(-c4cccc(NC(=O)c5ccc(C(=O)C(F)(F)F)cc5)c4)cs3)s2)cc(OC)c1OC, COC(=O)c1ccc(C(=O)Nc2cccc(-c3csc(-c4sc(Nc5cc(OC)c(OC)c(OC)c5)nc4N)n3)c2)cc1 is lower in inhibition at 0.15 µM: 26% for the first, 23% for the second.

Going from COc1cc(Nc2nc(N)c(-c3nc(-c4cccc(NC(=O)c5cccc(C#N)c5)c4)cs3)s2)cc(OC)c1OC to COc1ccccc1/C=C\C(=O)Nc1cccc(-c2csc(-c3sc(Nc4cc(OC)c(OC)c(OC)c4)nc3N)n2)c1, the inhibition at 0.15 µM falls from 56% to 53%.

First: COc1cc(CC(=O)Nc2cccc(-c3csc(-c4sc(Nc5cc(OC)c(OC)c(OC)c5)nc4N)n3)c2)cc(OC)c1OC
Second: COc1cc(Nc2nc(N)c(-c3nc(-c4cccc(NC(=O)C(Cc5ccccc5)c5ccccc5)c4)cs3)s2)cc(OC)c1OC (stereo not shown)
The inhibition at 0.15 µM of the first is higher: 29% for the first, 11% for the second.
